Patent US20220202774A1, “PHARMACEUTICAL COMPOSITION FOR PREVENTION OR TREATMENT OF SPINAL CORD INJURY OR SPINAL STENOSIS” (NEUROBIT SCIENCE CO., LTD., priority 2019, published 2022)
Where two headings read alike, the source gives them in different places.

Tests used:
[1] = tested on: chronic mechanical allodynia-induced rats; test: Paw withdrawal threshold (von Frey) in chronic mechanical allodynia-induced rats after compression of the cauda equina; type: in vivo, Sprague-Dawley rats
Description: For experiments related to the present invention, a total of 167 male Sprague-Dawley rats (250 to 270 g, Samtako, Osan, Korea) were used. The rats were kept in an environment of room temperature (23±1° C.) and 60±10% humidity under a 12-hour light/12-hour dark cycle (light on from 07:30 to 19:30) and given free access to water and food. The rats were housed individually in cages (410×282×153 mm, clear polycarbonate) lined with aspen shaving bedding and fed a commercial diet (5L79, PMI Nutrition International, St Louis, Mo.) and a commercial standard feed (Lab Diet 5L791 Purina Mills, Richmond, Ind.). All animal experiments were performed in accordance with the guidelines of the Animal Protection Committee of Kyung Hee University (Permission No. KHUASP(SE)-15-006) and in compliance with the ethical guidelines of the International Association for the Study of Pain.
More specifically, the rats were anesthetized by administering chloral hydrate (500 mg/kg) as an intraperitoneal injection, the backside of each rat was shaved, and the L4 to S2 vertebral plates were exposed.
Next, the ligamenta flava between L4 and L5 were removed. […]
Mechanical allodynia was assessed by detecting responses to stimulation with calibrated von Frey filaments and evaluated in terms of paw withdrawal threshold (PWT). […]

iNOS mRNA = test: RT-PCR of iNOS mRNA in cauda equina of chronic mechanical allodynia-induced rats; type: in vivo, Sprague-Dawley rats; conditions: 30 minutes after administering
Description: (§1) Only rats with a weight in the range of 350 to 380 g and in which chronic mechanical allodynia (2.5-4.0 g) was induced on the 28th day of compression of the cauda equina were selected as the experimental group. The rats were randomly assigned to three experimental groups treated with a vehicle, celecoxib, or the compound according to the present invention.
(§2) Celecoxib (Sigma, St. Louis, Mo.) or the compound according to the present invention was dissolved in methyl pyrrolidone:Tween-80:saline (1:1:8, 100 μl) and injected intraperitoneally at a dose of 2, 5, or 10 mg/kg. The vehicle group was injected with 1-methyl-2-pyrrolidone (1-methyl-2-pyrrolidone:Tween-80:saline (1:1:8)) at an equal dose.
(§3) At the time of the peak effect (30 minutes after injection of drug), the rats were anesthetized by injecting chloral hydrate (500 mg/kg) and perfused with 0.1 M PBS (pH 7.4), followed by perfusion with a solution containing 4% paraformaldehyde added to PBS.
(§4) For analysis at the molecular level, the rats were perfused with 0.1 M PBS, and a 20 mm-thick section of the cauda equina with the site of injury at the center was isolated and kept frozen at −80° C. until use.
(§5) RT-PCR of TNF-α, IL-1β, IL-6, iNOS, and GAPDH was performed. […]

IL-6 mRNA = test: RT-PCR of IL-6 mRNA in cauda equina of chronic mechanical allodynia-induced rats; type: in vivo, Sprague-Dawley rats; conditions: 30 minutes after administering
Description: as §1, §2, §3, §4, §5

IL-1β mRNA = test: RT-PCR of IL-1β mRNA in cauda equina of chronic mechanical allodynia-induced rats; type: in vivo, Sprague-Dawley rats
Description: as §1, §2, §3, §4, §5

PGE2 = PGE2 level in cauda equina fibers by ELISA; type: in vivo, Sprague-Dawley rats
Description: as §1, §2, §4
Levels of PEG2 in the cauda equina fibers were analyzed using a PEG2 ELISA kit (Monoclonal, Cayman Chemical Ann Arbor, Mich.) according to the manufacturer's instructions.
An experiment was performed using rats administered with celecoxib and the compound according to the present invention to confirm through RT-PCR whether production of inflammatory mediators is inhibited. Another experiment was performed to confirm through ELISA whether production of PGE2 is inhibited.

[2] = tested on: LPS-induced PGE2 production in RAW 264.7 (a murine macrophage cell line); test: Inhibition of production of LPS-induced PGE2 by macrophage cell line; type: cell-based; conditions: Mus musculus
Description: RAW 264.7 (a murine macrophage cell line) was obtained from Korea Cell Line Bank (KCLB). RAW 264.7 was cultured in Dulbecco's Modified Eagle Medium (DMEM) containing 10% fetal bovine serum (FBS), penicillin (100 units/mL), and streptomycin sulfate (100 μg/mL) at 37° C. and in a humidified atmosphere of 5% carbon dioxide in air.
Using DMEM, 1 mL each of RAW 264.7 with a concentration of 5×10^5 cells/mL was seeded in 24 wells. The seeded cells were left overnight, the medium was changed, and then the drug was treated at an appropriate concentration. After incubating for 1 hour, LPS was treated at 1 μg/ml, followed by incubation for 24 hours (or an appropriate length of time). The supernatant was taken and diluted 5-fold. 150 μl of an assay buffer was added to Non-Specific Binding (NSB) wells, and 100 μl of the assay buffer was added to zero standard (Bo) wells. 100 μl of standard sample and 50 μl of PGE2 conjugates were added to the remaining wells (excluding the NSB wells). 50 μl of PGE2 antibody solution was added to the wells and shaken for 2 hours. The contents of each well were suctioned off, and the wells were washed 5 times with wash buffer. 200 μl of para-nitrophenyl phosphate (pNPP) substrate was added to all wells. After storing the wells at room temperature (in a clean bench) for 1 hour, 50 μl of a stop solution was added, and absorbance was measured at 405 nm. […]

TNF-α mRNA = test: RT-PCR of TNF-α mRNA in cauda equina of chronic mechanical allodynia-induced rats; type: in vivo, Sprague-Dawley rats; conditions: 30 minutes after administering
Description: as §1, §2, §3, §4, §5

[3] = tested on: RAW 264.7 (the murine macrophage cell line); test: Cytotoxicity of macrophages (MTT assay); type: cell-based; conditions: Mus musculus, RAW264.7; RAW 264.7, LPS 1 μg/ml, 24 hours; read-out: Cell viability(μM) (IC50, MTT assay)
Description: The physiological activity of 3-(4-chlorophenyl)-4-(4-aminosulfonyl-phenyl)-1-methyl-1H-pyrrole-2,5-dione prepared according to Example 2 has been expressed in terms of IC50, which is the concentration at which there is 50% inhibition of the activity of an enzyme. On the other hand, for the cytotoxicity of the compounds according to the present invention, cell viability values (IC50) were measured using the MTT assay.
RAW 264.7 (the murine macrophage cell line) was cultured in DMEM containing 10% FBS, penicillin (100 units/ml), and streptomycin sulfate (100 μg/ml) at 37° C. and in a humidified atmosphere of 5% carbon dioxide in air. Cells were collected using centrifugation and a scraper. The cells were added at a concentration of 1×10^5 cells/well to wells of a 96-well plate containing Roswell Park Memorial Institute (RPMI) 1640 medium, which includes 10% FBS. 3 beta, 4 beta-epoxy-8a-isobutyryloxyguaia-1(10),11, (13)-diene-12.6a-olide was dissolved in methylsulfoxide (DMSO) as a solvent. […] After one night, samples and LPS (1 μg/ml) were added to the wells, and the plate was incubated for 24 hours. […]

CN1C(=O)C(c2ccc(Cl)cc2)=C(c2ccc(S(N)(=O)=O)cc2)C1=O [3-(4-chlorophenyl)-4-(4-aminosulfonyl-phenyl)-1-methyl-1H-pyrrole-2,5-dione]
PWT compared to the vehicle group ([1]; 2, 5, 10 mg/kg intraperitoneal, 30 minutes after injecting): increased significantly in a dose-dependent manner | duration of analgesic effect ([1]; high dose, intraperitoneal): 3 h | expression of iNOS mRNA (iNOS mRNA): significantly reduced | expression of IL-6 mRNA (IL-6 mRNA): significantly reduced | expression of IL-1β mRNA (IL-1β mRNA): significantly reduced | PGE2 production compared to the vehicle group (PGE2): significantly reduced | IC50 ([2]; RAW264.7, 24 h, RAW 264.7, LPS 1 μg/ml, 24 hours, read-out: IC50(μM) PGE2): 0.0087 µM | IC50 ([2]; RAW264.7, RAW 264.7, LPS-induced, text/FIG. 2, read-out: IC50 value for inhibition of PGE2 production): 0.00595 µM | expression of TNF-α mRNA (TNF-α mRNA): significantly reduced | IC50 [3]: > 10 µM
